Like-named read-outs stand apart in the source and are kept apart here.
Experiments:
BUD-8 human fibroblast = test: BUD-8 human cell line fibroblast proliferation assay (FIB.); format: cell-based; conditions: Anti-inflammatory/Anti-proliferative Activity
Excerpt: ii BUD-8 human cell line fibroblast proliferation assay.
(§1) The MLR assay measures the effects of a study compound on the activation and antigen presentation of T-lymphocytes, therefore determining immunomodulatory properties. The mouse spleen cell mitogen-induced blastogenesis and the BUD-8 human fibroblast proliferation assays measure the effects of the compounds of the present invention on cellular proliferation of cells involved in the pathogenesis of autoimmune diseases. These two assays are appropriate as screens to ascertain anti-inflammatory and/or autoimmune diseases.
The skin cell fibroblast line, BUD-8, was originally derived from the normal skin of a person and can now be obtained from the American Type Culture Collection, Rockville, Md.
(§2) The detailed experimental procedure for the above-mentioned assays is described in detail in U.S. Pat. Nos. 5,360,790 and 5,367,062 incorporated herein by reference.

[1] = system: mouse spleen cell (T-lymphocyte); test: Concanavalin A (CON-A) assay, mouse spleen cell mitogen induced blastogenesis; format: cell-based; conditions: Anti-inflammatory/Anti-proliferative Activity
Excerpt: iii Concanavalin A assay (the mouse spleen cell mitogen induced blastogenesis).
as §1
It is known that the induction and maintenance of most inflammatory diseases are typically due to the unrestricted activity of T-lymphocytes. Therefore, it is advantageous to identify compounds which are modulators of T-lymphocyte activity for eventual use in the regulation of inflammatory diseases, including acquired immune deficiency syndrome, psoriasis, systemic lupus, erythromatosus, and rheumatoid arthritis.
as §2

[2] = system: human tumor cell lines (approximately 60); test: NCI in vitro human tumor cell line screen (SRB), mean graph midpoints over all cell lines; format: cell-based; conditions: for CC50 / GI50 / IC (TGI): Homo sapiens, average of all cell lines, 48 h; for CC50: 50% cell death (-50% growth), read-out: log10 LC50 mean graph midpoint (converted); for IC (TGI): total cell growth inhibition (0% growth), read-out: log10 TGI mean graph midpoint (converted); for in vitro activity in words: various in vitro cell lines, IC50, average GI50, mean graph pattern
Description: In performing in vitro human tumor cell line assay, a total of approximately 60 human tumor cell lines derived from ten cancer types (leukemia, non-small cell lung cancer, small cell lung cancer, colon cancer, CNS cancer, melanoma, ovarian cancer, renal cancer, breast cancer and prostate cancer) were used in this assay. Compounds were tested at different concentrations against every cell line. All lines are inoculated into a series of standard 96-well microtiter plates on day 0, in the majority of cases at 20,000 cells/well, and then pre-incubated in the absence of testing agent for 24 hours. A testing agent was then added in five 10-fold dilutions and incubated for a further period of 48 hours. Following this, the cells are fixed in situ, washed, and dried. Sulforhodamine B (SRB, protein binding dye) is added, followed by further washing and drying of the stained adherent cell mass. The bound stain is solubilized and measured spectrophotometrically on an automatic plate reader.
For each compound, dose response curves for each cell line were measured with five different drug concentrations, and the concentration causing 50% cell growth inhibition (GI50), total cell growth inhibition (TGI, 0% growth), and 50% cell death (LC50, -50% growth) compared with the control was calculated. […] In these graphs, the mean logarithmic value of GI50 in all cell lines for each tested compound is used as the midpoint of that bar graph.

[3] = system: T cells (splenic T cell proliferation, co-cultured spleen cells from two strains of mice); test: Mixed lymphocyte response (MLR); format: cell-based; conditions: Mus musculus, Anti-inflammatory/Anti-proliferative Activity
Excerpt: i Mixed lymphocyte response (MLR).
as §1
The MLR is a classical assay used to measure T cell function by studying the proliferation response of T cells which are activated in vitro by genetically disparate stimulator cells. This is accomplished by co-culturing spleen cells from two different strains of mice. Splenic T cell proliferation occurs as a result of cellular activation signals generated by the ongoing cellular interactions.
as §2

[4] = system: UACC-62 Melanoma Xenografts; test: Early Stage Subcutaneous Tumor Model UACC-62 Melanoma Xenografts; conditions: for Drug Deaths: of 6 mice; for Opt. % T/C: >40 considered inactive
Description: (§3) In this in vivo model Murine or human tumor fragments (30 mg) are implanted subcutaneously into the axillary region of pathogen-free immunocompetent or immunodefficient mice, respectively, on experimental day 0. Test agent treatment is initiated either on the day which is historically associated with the start of tumor growth, or when the tumor is palpable. Tumor size and body weights are obtained approximately two times per week. Tumor weights are calculated from caliper measurements of tumor dimensions in mm using the formula for a prolate ellipsoid:
(§4) (L×W^2)/2; where L is the longer of the 2 measurements
(§5) Generally, tumor size is monitored until an upper weight limit of 500 mg is attained.

P388 Murine Leukemia = P388 Murine Leukemia in vivo
Description: Two of the compounds of the present invention (Ic and Im) were also tested against P388 Murine Leukemia.

[5] = system: SK-MEL-28 Melanoma Xenografts; test: Early Stage SK-MEL-28 Melanoma Xenografts; conditions: for Drug Deaths: of 6 mice; for Opt. % T/C: >40 considered inactive
Description: as §3, §4, §5

[6] = system: COLO 205 Colon Tumor Xenografts; test: Early Stage SC COLO 205 Colon Tumor Xenografts; conditions: for Drug Deaths: of 6 mice; for Opt. % T/C: >40 considered inactive
Description: as §3, §4, §5

[7] = 50% cell growth inhibition, read-out: GI50 (average)
[8] = log10 of molar concentration, read-out: log10 I50 (log10 GI50 mean graph midpoint) (converted)
[9] = 134 mg/kg/dose IP Q4D × 3, day 6
[10] = 200 mg/kg/dose IP Q4D × 3, day 6
[11] = Ic 60, 40 and 27 mg/kg/dose, Im 120, 80 and 54 mg/kg/dose
[12] = 200 mg/kg/dose IP QD × 5, day 3
[13] = 200 mg/kg/dose IP Q4D × 3, day 7

## CCCCCCCCCCCCOC[C@@]12O[C@@H](CN3CCCC3)[C@@H](O)[C@@H]1OC(C)(C)O2 [Ia, 2,3-O-Isopropylidene-6-deoxy-6-(1-pyrrolidinyl)-1-O-dodecyl-α-L-xylo-2-hexulofuranose]
BUD-8 human fibroblast
  IC50: < 3 µM
[1]
  IC50: < 1 µM
[2]
  CC50: 13.2 µM
  IC (TGI): 4.37 µM
[2]; [7]
  GI50: 4.21 µM
[2]; [8]
  GI50: 0.204 µM
[3]
  IC50: < 1 µM

## CCCCCCCCCCCCOC[C@@]12O[C@@H](CN3CCOCC3)[C@@H](O)[C@@H]1OC(C)(C)O2 [Ic, 2,3-O-Isopropylidene-6-deoxy-6-(1-morpholinyl)-1-O-dodecyl-α-L-xylo-2-hexulofuranose]
[4]; 90 mg/kg/dose IP Q4D × 3, day 6
  Drug Deaths: 0
[4]; 90 mg/kg/dose IP Q4D × 3, day 6, optimum on day 16
  Opt. % T/C: 39%
[4]; [9]
  Opt. % T/C: Toxic
  Drug Deaths: 6
[4]; [10]
  Opt. % T/C: Toxic
  Drug Deaths: 6
BUD-8 human fibroblast
  IC50: 14.8 µM
[1]
  IC50: 10.3 µM
[2]
  CC50: 56.2 µM
  IC (TGI): 29.5 µM
  in vitro activity in words: significant activity in various in vitro cell lines
[2]; [7]
  GI50: 31.6 µM
[2]; [8]
  GI50: 14.5 µM
P388 Murine Leukemia; [11]
  antitumor activity: only slight antitumor activity
  toxicity: toxic at the higher dose levels
P388 Murine Leukemia; mouse, in vivo
  maximally tolerated dose: a maximally tolerated dose was not achieved
[5]; 90 mg/kg/dose IP QD × 5, day 3
  Drug Deaths: 0
[5]; 134 mg/kg/dose IP QD × 5, day 3
  Drug Deaths: 1
[5]; 134 mg/kg/dose IP QD × 5, day 3, optimum on day 9
  Opt. % T/C: 36%
[5]; [12]
  Opt. % T/C: Toxic
  Drug Deaths: 6
[5]; Ic 90 mg/kg/dose IP QD × 5, day 3, optimum on day 16
  Opt. % T/C: 35%
[3]
  IC50: < 1 µM
[6]; 90 mg/kg/dose IP Q4D × 3, day 7
  Drug Deaths: 0
[6]; 134 mg/kg/dose IP Q4D × 3, day 7
  Drug Deaths: 1
[6]; 134 mg/kg/dose IP Q4D × 3, day 7, optimum on day 29
  Opt. % T/C: 40%
[6]; [13]
  Opt. % T/C: Toxic
  Drug Deaths: 6
[6]; Ic 90 mg/kg/dose IP Q4D × 3, day 7, optimum on day 36
  Opt. % T/C: 43%

## CCCCCCCCCCCCOC[C@@]12O[C@@H](CN3CCCCCC3)[C@@H](O)[C@@H]1OC(C)(C)O2 [Id, 2,3-O-Isopropylidene-6-deoxy-6-(1-hexamethyleneimino)-1-O-dodecyl-α-L-xylo-2-hexulofuranose]
BUD-8 human fibroblast
  IC50: < 3 µM
[1]
  IC50: < 3 µM
[2]
  CC50: 10.7 µM
  IC (TGI): 4.57 µM
[2]; [7]
  GI50: 3.87 µM
[2]; [8]
  GI50: 1.82 µM
[3]
  IC50: < 1 µM

## CCCCCCCCCCCCOC[C@@]12O[C@@H](CNCCN3CCOCC3)[C@@H](O)[C@@H]1OC(C)(C)O2 [If, 2,3-O-Isopropylidene-6-deoxy-6-aminoethylmorpholinyl-1-O-dodecyl-α-L-xylo-2-hexulofuranose]
BUD-8 human fibroblast
  IC50: < 1 µM
[1]
  IC50: < 1 µM
[2]
  CC50: 11 µM
  IC (TGI): 5.13 µM
[2]; [7]
  GI50: 4.68 µM
[2]; [8]
  GI50: 2.34 µM
[3]
  IC50: < 1 µM

## CCCCCCCCCCCCOC[C@@]12O[C@@H](CNCCN3CCCCC3)[C@@H](O)[C@@H]1OC(C)(C)O2 [Ig, 2,3-O-Isopropylidene-6-deoxy-6-aminoethylpiperidinyl-1-O-dodecyl-α-L-xylo-2-hexulofuranose]
BUD-8 human fibroblast
  IC50: < 3 µM
[1]
  IC50: < 3 µM
[2]
  CC50: 20 µM
  IC (TGI): 7.76 µM
[2]; [7]
  GI50: 6.8 µM
[2]; [8]
  GI50: 3.39 µM
[3]
  IC50: < 1 µM

## CCCCCCCCCCCCOC[C@@]12O[C@@H](C)[C@@H](OCCN3CCCC3)[C@@H]1OC(C)(C)O2 [Il, 2,3-O-Isopropylidene-6-deoxy-1-O-dodecyl-4-O-ethylpyrrolidinyl-α-L-xylo-2-hexulofuranose]
BUD-8 human fibroblast
  IC50: < 1 µM
[1]
  IC50: < 1 µM
[2]
  CC50: 28.8 µM
  IC (TGI): 10.5 µM
  in vitro activity in words: significant activity
[2]; [7]
  GI50: 8.68 µM
[2]; [8]
  GI50: 4.07 µM
[3]
  IC50: < 1 µM

## CCCCCCCCCCCCOC[C@@]12O[C@@H](C)[C@@H](OCCN3CCOCC3)[C@@H]1OC(C)(C)O2 [In, 2,3-O-Isopropylidene-6-deoxy-1-O-dodecyl-4-O-ethylmorpholinyl-α-L-xylo-2-hexulofuranose]
BUD-8 human fibroblast
  IC50: 12.9 µM
[1]
  IC50: 10.5 µM
[2]
  CC50: 91.2 µM
  IC (TGI): 72.4 µM
[2]; [7]
  GI50: 74.9 µM
[2]; [8]
  GI50: 36.3 µM
[3]
  IC50: 3.8 µM

## CCCCCCCCCCCCOC[C@@]12O[C@@H](CN3CCCCCC3)[C@@H](OCCN3CCCC3)[C@@H]1OC(C)(C)O2 [Ir, 2,3-O-Isopropylidene-6-deoxy-1-O-dodecyl-4-O-ethylpyrrolidinyl-6-hexamethyleneimino-α-L-xylo-2-hexulofuranose]
BUD-8 human fibroblast
  IC50: < 1 µM
[1]
  IC50: < 1 µM
[2]
  CC50: 21.4 µM
  IC (TGI): 8.13 µM
[2]; [7]
  GI50: 3.22 µM
[2]; [8]
  GI50: 1.78 µM
[3]
  IC50: < 1 µM

## CCCCCCCCCCCCOC[C@@]12O[C@@H](CN3CCCCCC3)[C@@H](OCCN3CCCCC3)[C@@H]1OC(C)(C)O2 [It, 2,3-O-Isopropylidene-6-deoxy-1-O-dodecyl-4-O-ethylpiperidinyl-6-hexamethyleneimino-α-L-xylo-2-hexulofuranose]
BUD-8 human fibroblast
  IC50: < 1 µM
[1]
  IC50: < 1 µM
[2]
  CC50: 36.3 µM
  IC (TGI): 7.76 µM
[2]; [7]
  GI50: 2.38 µM
[2]; [8]
  GI50: 1.35 µM
[3]
  IC50: < 1 µM

## CCCCCCCCCCCCOC[C@@]12O[C@@H](CN3CCCCCC3)[C@@H](OCCCN3CCCCC3)[C@@H]1OC(C)(C)O2 [Iu, 2,3-O-Isopropylidene-6-deoxy-1-O-dodecyl-4-O-propylpiperidinyl-6-hexamethyleneimino-α-L-xylo-2-hexulofuranose]
BUD-8 human fibroblast
  IC50: < 1 µM
[1]
  IC50: < 1 µM
[2]
  CC50: 28.8 µM
  IC (TGI): 3.72 µM
[2]; [7]
  GI50: 0.86 µM
[2]; [8]
  GI50: 0.501 µM
[3]
  IC50: < 1 µM

## CCCCCCCCCCCCOC[C@@]12O[C@@H](CN3CCCCCC3)[C@@H](OCCN3CCOCC3)[C@@H]1OC(C)(C)O2 [Iv, 2,3-O-Isopropylidene-6-deoxy-1-O-dodecyl-4-O-ethylmorpholinyl-6-hexamethyleneimino-α-L-xylo-2-hexulofuranose]
BUD-8 human fibroblast
  IC50: < 1 µM
[1]
  IC50: < 1 µM
[2]
  CC50: 44.7 µM
  IC (TGI): 11.5 µM
[2]; [7]
  GI50: 3.2 µM
[2]; [8]
  GI50: 1.82 µM
[3]
  IC50: < 1 µM

## CCCCCCCCCCCCOC[C@@]12O[C@@H](CN3CCCCCC3)[C@@H](OCCCc3ccccc3)[C@@H]1OC(C)(C)O2 [Iw, 2,3-O-Isopropylidene-6-deoxy-1-O-dodecyl-4-O-phenylpropyl-6-hexamethyleneimino-α-L-xylo-2-hexulofuranose]
BUD-8 human fibroblast
  IC50: < 1 µM
[1]
  IC50: < 1 µM
[2]
  CC50: 16.6 µM
  IC (TGI): 10 µM
[2]; [7]
  GI50: 4.18 µM
[2]; [8]
  GI50: 2.45 µM
[3]
  IC50: < 1 µM
